Like-named read-outs stand apart in the source and are kept apart here.
Assays:
[1] = system: Progesterone receptor mRNA; experiment: Progesterone receptor mRNA regulation in the preoptic area of the rat brain; assay type: in vivo; conditions: 10 mg/kg
HLA-B27 rats [2] = conditions: for Joint inflammation score: 10 mg/kg orally once per day
Lewis rats [3] = experiment: Lewis rat adjuvant-induced arthritis, inhibition protocol; assay type: in vivo
[4] = system: Sexually immature 129 SvE mice; experiment: Mouse uterotrophic test procedure (Procedure 2); assay type: in vivo; conditions: 50 mg/kg/day sc, days 22-25
Lewis rats [5] = experiment: Lewis rat adjuvant-induced arthritis, treatment protocol; assay type: in vivo; conditions: for Joint inflammation score: 10 mg/kg sc daily from Day 8 after adjuvant
[6] = system: Sexually immature Sprague-Dawley rats; experiment: Rat uterotrophic test procedure (Procedure 1); assay type: in vivo
HLA-B27 rats [7] = conditions: for Stool score (group's average score): 2=soft stool, 1=normal stool
casein kinase II mRNA = experiment: Rat mammotrophic assay (mammary end bud test procedure); assay type: in vivo; conditions: ovariectomized rats, 20 mg/kg sc 6 days, with progesterone 30 mg/kg
[8] = joint histology, 10 mg/kg orally for 46 days
[9] = Mankin scores, tarsal joints, 10 mg/kg, mean ± SD
[10] = synovitis histology, tarsal joints, 10 mg/kg, mean ± SD
[11] = colon histological score, 10 mg/kg orally for 46 days

`N#Cc1cc(-c2ccc(O)c(F)c2)cc2ccc(O)cc12` [Example 1av, 3-(3-Fluoro-4-hydroxyphenyl)-7-hydroxy-1-naphthonitrile] was tested, and the “Progesterone receptor mRNA (arbitrary units; mean ± stdev)” value [1] was 33.7 ± 20.6 arbitrary units, the Joint inflammation score (HLA-B27 rats [2]; Day 29) was 0.5 and the Joint inflammation score (HLA-B27 rats [2]; Day 30) was 0.5. The Joint inflammation score (HLA-B27 rats [2]; Day 31) was 0.5, the Joint inflammation score (HLA-B27 rats [2]; Day 32) was 1 and the Joint inflammation score (HLA-B27 rats [2]; Day 33) was 1.75. It also gave a Joint inflammation score (HLA-B27 rats [2]; Day 34) of 1.5, a Joint inflammation score (HLA-B27 rats [2]; Day 35) of 1 and a Joint inflammation score (HLA-B27 rats [2]; Day 36) of 1.75. It also gave a Joint inflammation score (HLA-B27 rats [2]; Day 37) of 1.75, a Joint inflammation score (HLA-B27 rats [2]; Day 38) of 1.5 and a Joint inflammation score (HLA-B27 rats [2]; Day 39) of 0.75. The Joint inflammation score (HLA-B27 rats [2]; Day 40) was 0.75, the Joint inflammation score (HLA-B27 rats [2]; Day 41) was 0.5 and the Joint inflammation score (HLA-B27 rats [2]; Day 42) was 1.5. For the same compound, the Joint inflammation score (HLA-B27 rats [2]; Day 43) was 1.25, the Joint inflammation score (HLA-B27 rats [2]; Day 44) was 1.75 and the Joint inflammation score (HLA-B27 rats [2]; Day 45) was 1.25. For the same compound, the Joint inflammation score (HLA-B27 rats [2]; Day 46) was 0.75, the “Mankin score (mean ± SD)” value (HLA-B27 rats [2]; [8]) was 4.5 ± 1.8 and the “Synovitis score (mean ± SD)” value (HLA-B27 rats [2]; [8]) was 5.0 ± 2.5. The Joint inflammation score (Lewis rats [3]; sc daily from Day 1, Day 1, maximal score 12) was 0.00, the Joint inflammation score (Lewis rats [3]; sc daily from Day 1, Day 2, maximal score 12) was 0.00 and the Joint inflammation score (Lewis rats [3]; sc daily from Day 1, Day 3, maximal score 12) was 2.66. It also gave a Joint inflammation score (Lewis rats [3]; sc daily from Day 1, Day 4, maximal score 12) of 1.83, a Joint inflammation score (Lewis rats [3]; sc daily from Day 1, Day 5, maximal score 12) of 2.66 and a Joint inflammation score (Lewis rats [3]; sc daily from Day 1, Day 6, maximal score 12) of 2.16. For the same compound, the Joint inflammation score (Lewis rats [3]; sc daily from Day 1, Day 7, maximal score 12) was 2.00, the Joint inflammation score (Lewis rats [3]; sc daily from Day 1, Day 8, maximal score 12) was 1.66 and the Joint inflammation score (Lewis rats [3]; sc daily from Day 1, Day 9, maximal score 12) was 2.00. The Joint inflammation score (Lewis rats [3]; sc daily from Day 1, Day 10, maximal score 12) was 2.00, the Joint inflammation score (Lewis rats [3]; sc daily from Day 1, Day 11, maximal score 12) was 1.66 and the Joint inflammation score (Lewis rats [3]; sc daily from Day 1, Day 12, maximal score 12) was 1.66. The Joint inflammation score (Lewis rats [3]; sc daily from Day 1, Day 13, maximal score 12) was 2.16, the Joint inflammation score (Lewis rats [3]; sc daily from Day 1, Day 14, maximal score 12) was 2.00 and the Joint inflammation score (Lewis rats [3]; sc daily from Day 1, Day 15, maximal score 12) was 2.00. The Joint inflammation score (Lewis rats [3]; sc daily from Day 1, Day 16, maximal score 12) was 1.00, the Joint inflammation score (Lewis rats [3]; sc daily from Day 1, Day 17, maximal score 12) was 1.33 and the “mean uterine weight (mg) ± SEM” value [4] was 12.6 ± 0.8 mg. The Joint inflammation score (Lewis rats [5]; Day 1, maximal score 12) was 11.33, the Joint inflammation score (Lewis rats [5]; Day 2, maximal score 12) was 10.83 and the Joint inflammation score (Lewis rats [5]; Day 3, maximal score 12) was 9.33. The Joint inflammation score (Lewis rats [5]; Day 4, maximal score 12) was 8.00, the Joint inflammation score (Lewis rats [5]; Day 5, maximal score 12) was 5.83 and the Joint inflammation score (Lewis rats [5]; Day 6, maximal score 12) was 3.33. For the same compound, the Joint inflammation score (Lewis rats [5]; Day 7, maximal score 12) was 3.00, the Joint inflammation score (Lewis rats [5]; Day 8, maximal score 12) was 2.50 and the Joint inflammation score (Lewis rats [5]; Day 9, maximal score 12) was 2.50. It also gave a Joint inflammation score (Lewis rats [5]; Day 10, maximal score 12) of 2.50, a Joint inflammation score (Lewis rats [5]; Day 11, maximal score 12) of 2.50 and a Joint inflammation score (Lewis rats [5]; Day 12, maximal score 12) of 2.50. The Joint inflammation score (Lewis rats [5]; Day 13, maximal score 12) was 2.50, the Joint inflammation score (Lewis rats [5]; Day 14, maximal score 12) was 2.50 and the Joint inflammation score (Lewis rats [5]; Day 15, maximal score 12) was 2.00. The Joint inflammation score (Lewis rats [5]; Day 16, maximal score 12) was 1.33, the Joint inflammation score (Lewis rats [5]; Day 17, maximal score 12) was 1.00 and the “Cartilage Cells (0–3)” value (Lewis rats [5]; [9]) was 0.75 ± 0.42. The “Cartilage Structure (0–6)” value (Lewis rats [5]; [9]) was 1.83 ± 0.68, the “Saffranin-O/Fast Green Staining (0–4)” value (Lewis rats [5]; [9]) was 1.25 ± 0.52 and the “Tidemark Integrity (0–1)” value (Lewis rats [5]; [9]) was 0. For the same compound, the “Total Mankin Score (0–14)” value (Lewis rats [5]; [9]) was 3.83 ± 1.21, the “Fibroplasia (0–3)” value (Lewis rats [5]; [10]) was 0.75 ± 0.42 and the “Inflammatory Cells (0–3)” value (Lewis rats [5]; [10]) was 1.25 ± 0.42. The “Pannus (0–1)” value (Lewis rats [5]; [10]) was 0.33 ± 0.61, the “Synovial Structure (0–3)” value (Lewis rats [5]; [10]) was 1.58 ± 0.38 and the “Total Synovitis Score (0–10)” value (Lewis rats [5]; [10]) was 3.83 ± 0.93. For the same compound, the “mean uterine weight (mg) ± SEM” value ([6]; 2 mg/rat/day coadministered with 17α-ethinyl-17β-estradiol 0.06 μg/rat/day (antagonist mode)) was 81.9 ± 4.2 mg, the “mean uterine weight (mg) ± SEM” value ([6]; 2 mg/rat/day sc, days 19-21) was 23.3 ± 1.3 mg and the “Time until stool character normalized” value (HLA-B27 rats [7]; 10 mg/kg orally daily) was ≤ 21 days. For the same compound, the “Stool score (group's average score)” value (HLA-B27 rats [7]; 10 mg/kg orally daily, Day 1, 3=diarrhea) was 2.75, the “Stool score (group's average score)” value (HLA-B27 rats [7]; 10 mg/kg orally daily, Day 2, 3=diarrhea) was 2.5 and the “Stool score (group's average score)” value (HLA-B27 rats [7]; 10 mg/kg orally daily, Day 3, 3=diarrhea) was 2.25. The “Stool score (group's average score)” value (HLA-B27 rats [7]; 10 mg/kg orally daily, Day 4, 3=diarrhea) was 2.5, the “Stool score (group's average score)” value (HLA-B27 rats [7]; 10 mg/kg orally daily, Day 5, 3=diarrhea) was 2.25 and the “Stool score (group's average score)” value (HLA-B27 rats [7]; 10 mg/kg orally daily, Day 6, 3=diarrhea) was 2.5. For the same compound, the “Stool score (group's average score)” value (HLA-B27 rats [7]; 10 mg/kg orally daily, Day 7, 3=diarrhea) was 2.5, the “Stool score (group's average score)” value (HLA-B27 rats [7]; 10 mg/kg orally daily, Day 8, 3=diarrhea) was 2 and the “Stool score (group's average score)” value (HLA-B27 rats [7]; 10 mg/kg orally daily, Day 9, 3=diarrhea) was 2. For the same compound, the “Stool score (group's average score)” value (HLA-B27 rats [7]; 10 mg/kg orally daily, Day 10, 3=diarrhea) was 1.5, the “Stool score (group's average score)” value (HLA-B27 rats [7]; 10 mg/kg orally daily, Day 11, 3=diarrhea) was 1.5 and the “Stool score (group's average score)” value (HLA-B27 rats [7]; 10 mg/kg orally daily, Day 12, 3=diarrhea) was 1.5. The “Stool score (group's average score)” value (HLA-B27 rats [7]; 10 mg/kg orally daily, Day 13, 3=diarrhea) was 1.75, the “Stool score (group's average score)” value (HLA-B27 rats [7]; 10 mg/kg orally daily, Day 14, 3=diarrhea) was 1.75 and the “Stool score (group's average score)” value (HLA-B27 rats [7]; 10 mg/kg orally daily, Day 15, 3=diarrhea) was 1.5. The “Stool score (group's average score)” value (HLA-B27 rats [7]; 10 mg/kg orally daily, Day 16, 3=diarrhea) was 1.5, the “Stool score (group's average score)” value (HLA-B27 rats [7]; 10 mg/kg orally daily, Day 17, 3=diarrhea) was 1.25 and the “Stool score (group's average score)” value (HLA-B27 rats [7]; 10 mg/kg orally daily, Day 18, 3=diarrhea) was 1.25. For the same compound, the “Stool score (group's average score)” value (HLA-B27 rats [7]; 10 mg/kg orally daily, Day 19, 3=diarrhea) was 1.25, the “Stool score (group's average score)” value (HLA-B27 rats [7]; 10 mg/kg orally daily, Day 20, 3=diarrhea) was 1.25 and the “Stool score (group's average score)” value (HLA-B27 rats [7]; 10 mg/kg orally daily, Day 21, 3=diarrhea) was 1.25. For the same compound, the “Stool score (group's average score)” value (HLA-B27 rats [7]; 10 mg/kg orally daily, Day 22, 3=diarrhea) was 1, the “Stool score (group's average score)” value (HLA-B27 rats [7]; 10 mg/kg orally daily, Day 23, 3=diarrhea) was 1 and the “Stool score (group's average score)” value (HLA-B27 rats [7]; 10 mg/kg orally daily, Day 24, 3=diarrhea) was 1. For the same compound, the “Stool score (group's average score)” value (HLA-B27 rats [7]; 10 mg/kg orally daily, Day 25, 3=diarrhea) was 1, the “Fibrosis (0–2)” value (HLA-B27 rats [7]; [11]) was 0.07 ± 0.13 and the “Inflammation (0–3)” value (HLA-B27 rats [7]; [11]) was 1.13 ± 0.43. The “Lesion depth (0–2)” value (HLA-B27 rats [7]; [11]) was 0.38 ± 0.43, the Total score (HLA-B27 rats [7]; [11]) was 2.00 ± 1.14 and the “Ulceration (0–2)” value (HLA-B27 rats [7]; [11]) was 0.44 ± 0.43. For the same compound, the “Casein kinase II mRNA/18S rRNA (mean ± SEM)” value (casein kinase II mRNA) was 1.06 ± 0.17.
